{"source": "ChEMBL document CHEMBL5543121", "about": "“Drug Repurposing of ACT001 to Discover Novel Promising Sulfide Prodrugs with Improved Safety and Potent Activity for Neutrophil-Mediated Antifungal Immunotherapy” (J Med Chem, 2024)", "key": {"[1]": {"experiment": "Subacute toxicity in C57BL/6 mouse assessed as change in liver weight at 100 mg/kg, po administered daily for 14 days", "type": "organism-based", "settings": "in vivo, 336 h, time 14 day"}, "[2]": {"experiment": "Clearance in male Sprague-Dawley rat at 2 mg/kg, iv by LC-MS/MS analysis", "type": "ADME, organism-based", "settings": "in vivo"}, "[3]": {"experiment": "Acute toxicity in C57BL/6 mouse assessed as effect on creatinine level in serum at 500 mg/kg, po administered as single dose and measured every day for 14 days", "type": "organism-based", "settings": "in vivo, 336 h, time 14 day"}, "Neutrophil [4]": {"tested_on": "Neutrophil", "experiment": "Induction of apoptosis in mouse neutrophils assessed as dead cells at 40 uM incubated for 16 hrs by Annexin V-FITC/PI staining based flow cytometry analysis (reference value: 2.04%)", "type": "toxicity, cell-based"}, "Candida albicans [5]": {"tested_on": "Candida albicans", "experiment": "Induction of neutrophil-mediated antifungal immunity against Candida albicans SC5314 infected in cyclophosphamide-induced immunosuppressed C57BL/6 mouse at 50 to 100 mg/kg, po pretreated with CTX for 3 days followed by fungal infection and further administered with compound once a day for 3 days", "type": "functional, organism-based", "settings": "dose 50-100 mg/kg, time 3.0 day"}, "Candida albicans [6]": {"tested_on": "Candida albicans", "experiment": "Induction of neutrophil-mediated antifungal immunity against Candida albicans SC5314 infected in mouse assessed as reduction in PD-L1 positive Ly6G positive neutrophils in bone marrow at 50 to 100 mg/kg, po administered once a day for 3 days by flow cytometry analysis", "type": "functional, organism-based", "settings": "dose 50-100 mg/kg, time 3.0 day"}, "Neutrophil [7]": {"tested_on": "Neutrophil", "experiment": "Potency index, ratio of ACT001 IC50 to test compound IC50 for inhibition of fungal curdlan induced PD-L1 expression in mouse neutrophils assessed as reduction in PD-L1 positive Ly6G positive neutrophils incubated for 16 hrs by flow cytometry analysis", "type": "functional"}, "[8]": {"experiment": "Subacute toxicity in C57BL/6 mouse assessed as effect on AST level in serum at 100 mg/kg, po administered daily for 14 days and measured every day", "type": "organism-based", "settings": "in vivo, 336 h, time 14 day"}, "Neutrophil [9]": {"tested_on": "Neutrophil", "experiment": "Downregulation of phosphorylated STAT3 protein level at Ser727 residue in curdlan induced mouse bone marrow neutrophils at 40 uM measured upto 60 mins by Western blot analysis", "type": "functional, cell-based"}}, "note": "Calls of active or inactive are those of the source. No cut-off for these calls is given here."}
{"compound": "C[C@@]1(O)CC[C@]23O[C@@]2(C)CC[C@@H]2[C@H](OC(=O)[C@H]2CS(=O)(=O)c2c(Cl)cccc2Cl)[C@@H]13", "values": [{"measurement": "Activity", "setting": "[1]", "value": "Non-Toxic"}, {"measurement": "clearance", "setting": "[2]", "value": 453, "unit": "mL/min/kg"}, {"measurement": "Activity", "setting": "[3]", "value": "Non-Toxic"}, {"measurement": "Activity", "setting": "Neutrophil [4]", "value": 2.72, "unit": "%"}, {"measurement": "Activity", "setting": "Candida albicans [5]", "value": "inactive"}, {"measurement": "Activity", "setting": "Candida albicans [6]", "value": "Active"}, {"measurement": "Ratio IC50", "setting": "Neutrophil [7]", "value": 4.46}, {"measurement": "Activity", "setting": "[8]", "value": "Non-Toxic"}, {"measurement": "Activity", "setting": "Neutrophil [9]", "value": "Active"}]}
